The source of these data is patent US5049548A, “Renin-inhibitory di-, tri-, and tetrapeptides” (Merck & Co., Inc., priority 1989, dated 1991).

Usually IC50 stands for the concentration needed to halve the response being measured. Lower therefore signals higher potency.

Square brackets hold non-standard residues; d marks the D form. Peptide text beside a SMILES is read from it. * marks the point of attachment. Sta = CC(C)C[C@H](N)[C@@H](O)CC(=O)O; Isovaleryl = CC(C)CC(=O)*

The test system of the first test is hog renin.
Experiment: not given
Particulars: after the injection of hog renin into nephrectomized rats; cited from earlier work.
Take `CC(C)CC(=O)N[C@H](C(=O)N[C@H](C(=O)N[C@@H](CC(C)C)[C@@H](O)CC(=O)N[C@@H](C)C(=O)N[C@@H](CC(C)C)[C@@H](O)CC(=O)O)C(C)C)C(C)C` [pepstatin] (Isovaleryl-VV[Sta]A[Sta]-OH): the “blood pressure in vivo” value is listed as “reduces blood pressure in vivo”.

A further test concerns the target T1, human plasma renin (Homo sapiens, UniProt P00797).
T1 construct: determined against human plasma renin; from tissue; host or cells: human plasma
T1 sequence (P00797 67-406): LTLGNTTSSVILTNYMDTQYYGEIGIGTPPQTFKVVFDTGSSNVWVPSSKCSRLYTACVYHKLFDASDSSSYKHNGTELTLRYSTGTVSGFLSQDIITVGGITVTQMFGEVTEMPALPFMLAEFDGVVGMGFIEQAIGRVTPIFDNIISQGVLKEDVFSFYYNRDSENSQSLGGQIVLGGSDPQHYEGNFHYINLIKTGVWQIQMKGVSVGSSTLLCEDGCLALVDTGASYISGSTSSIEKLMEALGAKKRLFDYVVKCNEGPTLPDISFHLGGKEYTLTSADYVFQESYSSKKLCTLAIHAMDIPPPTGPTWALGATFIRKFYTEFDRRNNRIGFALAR
Kind of test: Renin-inhibitory potency against human plasma renin. It is filed as biochemical.
Conditions: not given
On the procedure: Renin-inhibitors potencies were determined against human plasma renin and are expressed as IC50 values.
Regarding `CCCC[C@H](NC(=O)[C@H](Cc1ccccc1)N[C@@H]1CN2CCC1CC2)C(=O)N[C@@H](CC1CCCCC1)[C@@H](O)CC(=O)N[C@H](C(=O)NCc1ccncc1)[C@@H](C)CC` [Example 20, N^α -(quinuclidin-3-yl)Phe-Nle-ACHPA-Ile-AMP], the IC50 stood at 5 nM. This lies in the single-digit nanomolar range.
On the same count and under the same terms, as for `CCCC[C@H](NC(=O)[C@H](Cc1ccccc1)N(C)[C@@H]1CN2CCC1CC2)C(=O)N[C@@H](CC1CCCCC1)[C@@H](O)CC(=O)N[C@H](C(=O)NCc1ccncc1)[C@@H](C)CC` [Example 21, N^α -Methyl-N^α -(quinuclidin-3(S)-yl)Phe-Nle-ACHPA-Ile-NHCH2 (pyridin-4-yl)], the figure is 150 nM; as for `CCCC[C@H](NC(=O)[C@H](Cc1ccccc1)N[C@@H]1CN2CCC1CC2)C(=O)N[C@@H](CC1CCCCC1)[C@@H](O)C(=O)OCC` [Example 30, N^α -(Quinuclidin-3(S)-yl)Phe-Nle-norACHPA-OEt], 91 nM.
The compound “N^α -(Quinuclidin-3(S)-yl)Phe-His-Cal[CH(OH)CH2 ]Val-NH-n-butyl [Example 27]” had an IC50 of 1.4 nM.
With “N^α -(Quinuclidin-3-yl)Phe-His-ACHPA-Ile-NHCH2 (pyridin-4-yl) [Example 24]”, the half-inhibitory concentration (IC50) came to 2 nM.
The same measure, in the same setting: as for “N^α -[(pyridin-2-yl)methyl]Phe-His-ACHPA-Ile-NHCH2 (pyridin-4-yl) [Example 31]”, the figure is 7 nM; as for “[N^α -(N-Methylquinuclidin-3(S)-yl)Phe-His-ACHPA-Ile-NH-CH2 -(pyridin-4-yl)]^+ I^- [Example 23]”, 1.7 nM.
